The text below walks through data of article PMC4245160 (ACS Chemical Biology, 2014).

A word on the EC50: it is the concentration that produces a half-maximal response.

This assay concerns the target T1, mouse OR-I7 (Mus musculus, UniProt Q9QWU6).
T1 sequence (Q9QWU6 1-327): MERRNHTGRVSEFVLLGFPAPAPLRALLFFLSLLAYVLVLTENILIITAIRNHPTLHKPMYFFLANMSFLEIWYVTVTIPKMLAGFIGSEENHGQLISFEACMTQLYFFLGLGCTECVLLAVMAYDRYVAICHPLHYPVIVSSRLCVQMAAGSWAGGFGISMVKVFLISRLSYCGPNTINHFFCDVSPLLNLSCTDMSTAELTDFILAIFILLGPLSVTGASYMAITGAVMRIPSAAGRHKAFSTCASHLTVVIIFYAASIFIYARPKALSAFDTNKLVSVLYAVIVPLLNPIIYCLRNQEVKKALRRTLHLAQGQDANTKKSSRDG
As to the kind of experiment: GloSensor cAMP assay in Hana3A cells expressing recombinant receptor. The format is cell-based. On the technique in general: Changes in cAMP serve as a functional read-out for many G protein-coupled receptors.

Regarding `CCCCCCCC=O` [compound 1, octanal], the half-maximal effective concentration (EC50) is about 1.5 µM.

`CCCCCCC(F)(F)C=O` [compound 2, 2,2-difluorooctanal]: the 50% effective concentration (EC50) was about 10 µM.
